{
  "source": "patent US20260207717A1",
  "about": "“METHODS FOR TREATING INFANTILE-ONSET POMPE DISEASE IN PEDIATRIC PATIENTS” (Amicus Therapeutics, Inc., priority 2022, published 2026)",
  "key": {"[1]": {"assay": "Juvenile toxicology", "assay_type": "in vivo", "description": "(§1) The cipaglucosidase alfa dose of 30 mg/kg being evaluated in this protocol was determined from population PK modeling and simulation analyses that included pooled data from 96 adults and 11 pediatric subjects dosed at 20, 25, and 30 mg/kg, including 3 pediatric IOPD patients from the Expanded Access Program (EAP) (ages 1 to 3 years) at the 30 mg/kg dose level. The 30 mg/kg dose level in combination with additional effect from miglustat provided exposures that are well within the safety margin and multiples of exposure established by the juvenile toxicology no-observed-adverse effect-level (NOAEL) of 150 mg/kg."}, "[2]": {"test_system": "pediatric IOPD patients", "assay": "Tolerability and accumulation in 3 pediatric IOPD patients of the EAP", "assay_type": "in vivo, human", "settings": "30 mg/kg cipaglucosidase alfa in combination with miglustat, 3 pediatric IOPD patients in the EAP", "description": "as §1\nThis frequency of dosing is based on the systemic clearance of the cipaglucosidase alfa and miglustat, and the acuity/severity of disease in IOPD, as well as observations in 3 IOPD patients enrolled in the EAP (ERT-experienced patients in clinical decline).\nA weekly frequency of 30 mg/kg cipaglucosidase alfa and miglustat administration will be evaluated in this study. A weekly 30 mg/kg cipaglucosidase alfa and miglustat dose has been administered in pediatric subjects with IOPD from the EAP. […] The rationale for weekly dosing in both cohorts is based on evidence supporting improved survival for IOPD patients receiving weekly dosing of standard of care ERT compared to every other week dosing (Ditters, Huidekper et al, 2021). […]"}, "[3]": {"test_system": "pediatric patient with infantile Pompe disease", "assay": "Example 16: pediatric IOPD patient switched from Myozyme to ATB200/AT2221", "assay_type": "in vivo, human", "source_text": "A patient with severe infantile Pompe disease presented. The patient underwent a comprehensive physical examination, measurement of GAA enzyme activity, genetic testing of the GAA gene and muscle biopsy to establish the diagnosis.\nThe patient received the high-dose enzyme replacement therapy with Myozyme after diagnosis. The patient responded very poorly to therapy. Due to rapidly progressing Pompe disease and inadequate response to therapy, the patient's survival was at risk. For the patient, the opportunity arose to receive the new ATB200/AT2221 ERT via a compassionate use/Expanded Access Program (EAP).\nThe index patient has regular measurement of the urinary Glc4-levels since the change of the ERT to ATB200. The Glc4-levels were determined by an established method from the Duke University. The analysis of Glc4 is standardized as a butyl-4-aminobenzoate derivative using [^13C6] Glc4 as the internal standard (IS). The measurement is performed as ultra-performance liquid chromatography-tandem mass spectrometry (UPLC-MS/MS). The Glc4-values are then normalized to creatinine.\nThe patient presented with IOPD at 6 months and was started on the standard dose of Myozyme (20 mg/kg/bi-weekly). Due to the inadequate response to therapy, the dose was doubled just one month after the start of therapy in form of a weekly administration of Myozyme. […] But the cardiological situation deteriorated progressively.\nTherefore, just three months after initiation of therapy, the dose was again doubled to 40 mg/kg/weekly, so the patient received a total of four times the standard dose. With the intensification of ERT and cardiac therapy, the patient's condition initially stabilized. Nevertheless, over the next few months, the patient's general condition steadily deteriorated, and the patient decompensated, especially respiratory.\nThe patient was switched from Myozyme to ATB200/AT2221 after eight months of insufficient Myozyme therapy response. The patient was […] at the time of the therapy switch. The new therapy (via EAP) was initiated with the oral administration of 30 mg premedication AT2221 (Miglustat) one hour prior to enzyme administration. ATB200 was administered at a bi-weekly interval at a dosage of 20 mg/kg. In the further course of treatment, the dosage of premedication and ERT was repeatedly adjusted and optimized (see Table 22). Some actual dosages in Table 22 (e.g., 37 mg/kg and 34.5 mg/kg at 32 and 38 months, respectively) varied from the target dose (e.g., 30 mg/kg) to avoid waste of extra material left in vials.\nThe Gross Motor Function Measure 66 (GMFM 66) is used to quantify a patients' motor skills. The GMFM 66 is a worldwide standardized test developed and validated for children with cerebral palsy to measure the development of gross motor function over time. During testing 66 items are examined and a score from 0 to 100 points is possible."}},
  "data": [
    {"substance": "ATB200: recombinant human acid α-glucosidase with a high content of N-glycans bearing mono-M6P and bis-M6P, produced from a GA-ATB200 cell line", "values": [
      {"measurement": "no-observed-adverse effect-level (NOAEL)", "setting": "[1]", "value": 150, "unit": "mg/kg"},
      {"measurement": "tolerability", "setting": "[2]", "value": "generally well-tolerated"},
      {"measurement": "GMFM 66 score", "setting": "[3]; 16.5 months of ATB200 therapy", "value": 17.0, "unit": "points"},
      {"measurement": "GMFM 66 score", "setting": "[3]; 24 months of ATB200 therapy", "value": 24.0, "unit": "points"},
      {"measurement": "GMFM 66 score", "setting": "[3]; 28 months of ATB200 therapy", "value": 29.3, "unit": "points"},
      {"measurement": "urinary Glc4 levels", "setting": "[3]; biweekly 20 mg/kg", "value": "remained relatively constant"},
      {"measurement": "urinary Glc4 levels", "setting": "[3]; dose increase to 25 mg/kg/bi-weekly and switch to weekly 30 mg/kg at 19 months of age", "value": "increase"},
      {"measurement": "urinary Glc4 levels", "setting": "[3]; since 32 months of age (FIG. 71)", "value": "decrease of the values to the initial level"}
    ]}
  ]
}
